Test results from patent US20240299562A1 (priority 2020, published 2024).
Where two headings read alike, the source gives them in different places. *1 amine or outer side, *2 acyl side, *3 side chain or, on linkers, in order; H or OH if unused. Where a SMILES comes first, the peptide text is derived from it. [ ]: non-standard residue; d: D form. The star is where a group is joined. X1 = CO[C@@H](C1CCCN1[*:1])[C@@H](C)C(=O)[*:2]; Dil = CC[C@H](C)[C@H](NC)[C@@H](CC(=O)O)OC; PABC = O=C(OCc1ccc(N[*:1])cc1)[*:2]; Phosphonoacetyl = O=C(CP(=O)(O)O)*; X2 = C[C@@H](N*)[C@@H](O)c1ccccc1; NMeV = CN[C@H](C(=O)O)C(C)C

Experiments:
HME-1 cells = assay: WST-1 cell viability, normal HME-1 cells; assay type: cell-based, human; conditions: for IC50: read-out: Absolute IC50
Procedure: (§1) All commercial cell lines were purchased at ATCC (LGC Standards SARL, France). Cells were seeded in 96-well plates according to their optimal seeding density, varying between 5.000 and 10.000 cells/well. After attachment overnight, 10-point serial titrations (1:5) were prepared in their equivalent complete media as recommended by ATCC, starting from the 10 mM stock solutions. For doxorubicin comprising prodrugs dilutions started from 100 μM, while for the parent compound doxorubicin dilutions started at 10 μM. […] Seventy-two hours later, compounds were removed together with the supernatants and cells were washed once with PBS to remove excess drugs.
(§2) The WST-1 assay for cell proliferation and viability (Roche, Switzerland) was performed according to manufacturer's protocol. Absorbances were measured at 4 hrs using a Perkin Elmer Ensight multiplate reader, equipped with Kaleido 2.0 software (Perkin Elmer, USA). Cell viability was expressed as a percentage compared to non-treated cells. Absolute IC50 values were extrapolated from a non-linear fitting following the Sigmoidal-4PL regression method using Graphpad Prism 7.0. Likewise, maximal efficacy was determined as 100% minus the cell viability determined when cells are incubated in the presence of a compound. For instance, if 20% of the cells survive incubation in the presence of a compound, then the maximal efficacy of that compound is 100%-20%=80%.
(§3) Selectivity indices (SI) were defined as the ratio of the concentration of drug required to kill 50% of the cells in normal (control, non-cancer) cells, divided by the concentration required to exert the same efficacy in tumor cells: SI=IC50 (control cell)/IC50 (cancer cell), or SI=^HME-1IC50/cancer IC50.

MIA PaCa-2 cells = assay: WST-1 cell viability, MIA PaCa-2 pancreatic cancer cells; assay type: cell-based
Procedure: as §1, §2, §3

HCT-116 cells = assay: WST-1 cell viability, HCT-116 colorectal cancer cells; assay type: cell-based
Procedure: as §1, §2, §3

A-172 cells = assay: WST-1 cell viability, A-172 glioblastoma cells; assay type: cell-based; conditions: for IC50: read-out: Absolute IC50
Procedure: as §1, §2, §3

U-87 MG cells = assay: WST-1 cell viability, U-87 MG glioblastoma cells; assay type: cell-based; conditions: for IC50: read-out: Absolute IC50
Procedure: as §1, §2, §3

MDA-MB-231 cells = assay: WST-1 cell viability, MDA-MB-231 triple negative breast cancer cells; assay type: cell-based; conditions: for IC50: read-out: Absolute IC50
Procedure: as §1, §2, §3

MDA-MB-468 cells = assay: WST-1 cell viability, MDA-MB-468 triple negative breast cancer cells; assay type: cell-based
Procedure: as §1, §2, §3

DU145 cells = assay: WST-1 cell viability, DU145 prostate cancer cells; assay type: cell-based
Procedure: as §1, §2, §3

A2058 cells = assay: WST-1 cell viability, A2058 melanoma cells; assay type: cell-based; conditions: for IC50: read-out: Absolute IC50
Procedure: as §1, §2, §3

NCI-1299 cells = assay: WST-1 cell viability, NCI-H1299 lung cancer cells; assay type: cell-based
Procedure: as §1, §2, §3

NCI-H292 cells = assay: WST-1 cell viability, NCI-H292 lung cancer cells; assay type: cell-based
Procedure: as §1, §2, §3

[1] = test system: U87 MG glioblastoma cells subcutaneously implanted in nude NMRI mice; assay: In vivo activity of PhAc-ALLP-Dox on U87 MG glioblastoma xenograft; parameters: species or system mouse; conditions: 5 mg/kg iv, once per week
Procedure: The in vivo efficacy of PhAc-ALLP-Dox was tested in a mouse GBM model. U87 MG glioblastoma cells were subcutaneously (SC) implanted in nude NMRI mice. In total, 32 adult (9-10 weeks old) nude female NMRI mice (Janvier, France) were subjected to SC tumor cell grafting in the right flank. In total, 5×10^6 U87 MG cells resuspended in PBS plus Matrigel (1:1) were injected in 200 uL final volume. As soon as the tumors were palpable and reached the volume of 200 mm3 the treatment was started. At day zero, mice were randomly divided into 4 groups, based on the tumor volume, in order to have the following experimental sub-cohorts: • control group receiving the vehicle (PBS pH7.2) with a dose of 5 ml/kg, intravenously (iv), once per week (QW); • PhAc-ALLP-Dox (30 mg/kg iv, QW); • PhAc-ALGP-Dox (154 mg/kg iv, QW); • Dox (5 mg/kg iv, QW).
Treatments were performed once per week for a total of four tail vein administrations/injections (on days 1, 7, 14 and 21). One extra week of observation followed the active treatment phase. During the experiment, tumor volume was measured two times a week and was assessed three-dimensionally with a digital caliper (Mitutoyo, Illinois) using the following formula:
V=4/3π×[(d/2)^2×(D/2)], where d is the minor tumor axis and D is the major tumor axis.

[2] = test system: Human umbilical vein endothelial cells (HUVEC); assay: WST-1 cell viability, normal HUVEC cells; assay type: cell-based; conditions: 72 hrs
Procedure: as §1, §2, §3

## COc1cccc2c1C(=O)c1c(O)c3c(c(O)c1C2=O)C[C@@](O)(C(=O)CO)C[C@@H]3O[C@H]1C[C@H](N)[C@H](O)[C@H](C)O1 [Doxorubicin, reference compound]
HME-1 cells; HME-1 normal cells against themselves (Table 3)
  SI = HME-1 IC50/cancer IC50: 1.00
HME-1 cells; Homo sapiens, HME1, HME-1 normal cells, 72 hrs continuous drug exposure, WST-1 (Table 1)
  IC50: 40 nM
MIA PaCa-2 cells; Homo sapiens, MIA PaCa-2 (PaC), 72 hrs, WST-1 (Table 1), read-out: Absolute IC50
  IC50: 100 nM
MIA PaCa-2 cells; Homo sapiens, MIA PaCa-2 (PaC), 72 hrs, WST-1 (Table 2), read-out: Maximal efficacy, cytotoxicity (%) at 100 μM
  cytotoxicity at 100 µM: 94.4%
MIA PaCa-2 cells; MIA PaCa-2 (PaC) vs HME-1 (Table 3)
  SI = HME-1 IC50/cancer IC50: 0.44
HCT-116 cells; HCT-116 (CrC) vs HME-1 (Table 3)
  SI = HME-1 IC50/cancer IC50: 0.36
HCT-116 cells; Homo sapiens, HCT-116 (CrC), 72 hrs, WST-1 (Table 1), read-out: Absolute IC50
  IC50: 120 nM
HCT-116 cells; Homo sapiens, HCT-116 (CrC), 72 hrs, WST-1 (Table 2), read-out: Maximal efficacy, cytotoxicity (%) at 100 μM
  cytotoxicity at 100 µM: 93.5%
A-172 cells; A-172 (GBM) vs HME-1 (Table 3)
  SI = HME-1 IC50/cancer IC50: 0.01
A-172 cells; Homo sapiens, A 172, 72 h, read-out: Maximal efficacy, cytotoxicity (%) at 100 μM
  cytotoxicity at 100 µM: 89.9%
A-172 cells; Homo sapiens, A-172 (GBM), 72 hrs, WST-1 (Table 1)
  IC50: 3360 nM
U-87 MG cells; Homo sapiens, U-87 MG, 72 h, read-out: Maximal efficacy, cytotoxicity (%) at 100 μM
  cytotoxicity at 100 µM: 71.8%
U-87 MG cells; Homo sapiens, U-87 MG (GBM), 72 hrs, WST-1 (Table 1)
  IC50: 70 nM
U-87 MG cells; U-87 MG (GBM) vs HME-1 (Table 3)
  SI = HME-1 IC50/cancer IC50: 0.59
MDA-MB-231 cells; Homo sapiens, MDA-MB-231, 72 h, read-out: Maximal efficacy, cytotoxicity (%) at 100 μM
  cytotoxicity at 100 µM: 91.5%
MDA-MB-231 cells; Homo sapiens, MDA-MB-231 (TNBC), 72 hrs, WST-1 (Table 1)
  IC50: 120 nM
MDA-MB-231 cells; MDA-MB-231 (TNBC) vs HME-1 (Table 3)
  SI = HME-1 IC50/cancer IC50: 0.38
MDA-MB-468 cells; Homo sapiens, MDA-MB-468 (TNBC), 72 hrs, WST-1 (Table 1), read-out: Absolute IC50
  IC50: < 10 nM
MDA-MB-468 cells; Homo sapiens, MDA-MB-468 (TNBC), 72 hrs, WST-1 (Table 2), read-out: Maximal efficacy, cytotoxicity (%) at 100 μM
  cytotoxicity at 100 µM: 95.5%
MDA-MB-468 cells; MDA-MB-468 (TNBC) vs HME-1 (Table 3)
  SI = HME-1 IC50/cancer IC50: 12.64
DU145 cells; DU145 (PrC) vs HME-1 (Table 3)
  SI = HME-1 IC50/cancer IC50: 1.55
DU145 cells; Homo sapiens, DU-145, DU145 (PrC), 72 hrs, WST-1 (Table 1), read-out: Absolute IC50
  IC50: 30 nM
DU145 cells; Homo sapiens, DU-145, DU145 (PrC), 72 hrs, WST-1 (Table 2), read-out: Maximal efficacy, cytotoxicity (%) at 100 μM
  cytotoxicity at 100 µM: 92.5%
A2058 cells; A2058 (Melanoma) vs HME-1 (Table 3)
  SI = HME-1 IC50/cancer IC50: 0.11
A2058 cells; Homo sapiens, A2058, 72 h, read-out: Maximal efficacy, cytotoxicity (%) at 100 μM
  cytotoxicity at 100 µM: 97%
A2058 cells; Homo sapiens, A2058 (Melanoma), 72 hrs, WST-1 (Table 1)
  IC50: 410 nM
NCI-1299 cells; Homo sapiens, NCI-H1299, NCI-1299 (NSCLC), 72 hrs, WST-1 (Table 1), read-out: Absolute IC50
  IC50: 30 nM
NCI-1299 cells; Homo sapiens, NCI-H1299, NCI-1299 (NSCLC), 72 hrs, WST-1 (Table 2), read-out: Maximal efficacy, cytotoxicity (%) at 100 μM
  cytotoxicity at 100 µM: 92.9%
NCI-1299 cells; NCI-1299 (NSCLC) vs HME-1 (Table 3)
  SI = HME-1 IC50/cancer IC50: 1.33
NCI-H292 cells; Homo sapiens, NCI-H292 (NSCLC), 72 hrs, WST-1 (Table 1), read-out: Absolute IC50
  IC50: 30 nM
NCI-H292 cells; Homo sapiens, NCI-H292 (NSCLC), 72 hrs, WST-1 (Table 2), read-out: Maximal efficacy, cytotoxicity (%) at 100 μM
  cytotoxicity at 100 µM: 90.4%
NCI-H292 cells; NCI-H292 (NSCLC) vs HME-1 (Table 3)
  SI = HME-1 IC50/cancer IC50: 1.62
[1]
  Tumor growth: significantly reduced tumor growth

## CC[C@H](C)[C@@H]([C@@H](CC(=O)N1CCCC1[C@H](OC)[C@@H](C)C(=O)N[C@H](C)[C@@H](O)c1ccccc1)OC)N(C)C(=O)[C@@H](NC(=O)[C@H](C(C)C)N(C)C(=O)OCc1ccc(NC(=O)[C@@H]2CCCN2C(=O)[C@H](CC(C)C)NC(=O)[C@H](CC(C)C)NC(=O)[C@H](C)NC(=O)CP(=O)(O)O)cc1)C(C)C (some centres unmarked) [PhAc-ALLP-PABC-MMAE] (Phosphonoacetyl-ALLP[PABC][NMeV]V[Dil][X1]-X2)
HME-1 cells; HME-1 normal cells
  Toxicity compared to MMAE on mammary epithelial (HME-1) cells: not significantly different
HME-1 cells; HME-1 normal cells, 72 hrs, WST-1 (Table 4)
  IC50: 10 nM
HME-1 cells; HME-1 normal cells, 72 hrs, WST-1, cytotoxicity at highest concentration (Table 5)
  Maximal efficacy: 99.5%
A-172 cells; A-172 (GBM), * towards HUVEC cells (Table 6)
  SI = HUVEC IC50 / cancer IC50: *1.9
A-172 cells; A-172 (GBM), ** towards hiPSCs (iAstro) (Table 6)
  SI = iAstro IC50 / cancer IC50: **>500
A-172 cells; A-172 (GBM), selectivity towards HME-1 cells (Table 6)
  SI = normal IC50 / cancer IC50: 0.1
A-172 cells; A-172 (GBM), 72 hrs, WST-1 (Table 4)
  IC50: 90 nM
A-172 cells; A-172 (GBM), 72 hrs, WST-1 (Table 5)
  Maximal efficacy: 97.4%
A-172 cells; GBM indication as a whole (A-172 and U-87 MG), vs HUVEC
  Selectivity index determined on HUVECs, GBM: 2.2
A-172 cells; GBM indication as a whole (A-172 and U-87 MG), vs iAstro
  Selectivity index towards hiPSC-derived astrocytes, GBM: > 10
U-87 MG cells; U-87 MG (GBM), * towards HUVEC cells (Table 6)
  SI = HUVEC IC50 / cancer IC50: *2.4
U-87 MG cells; U-87 MG (GBM), ** towards hiPSCs (iAstro) (Table 6)
  SI = iAstro IC50 / cancer IC50: **>500
U-87 MG cells; U-87 MG (GBM), selectivity towards HME-1 cells (Table 6)
  SI = normal IC50 / cancer IC50: 0.1
U-87 MG cells; U-87 MG (GBM), 72 hrs, WST-1 (Table 4)
  IC50: 70 nM
U-87 MG cells; U-87 MG (GBM), 72 hrs, WST-1 (Table 5)
  Maximal efficacy: 86.6%
MDA-MB-231 cells; MDA-MB-231 (TNBC), selectivity towards HME-1 cells (Table 6)
  SI = normal IC50 / cancer IC50: 0.2
MDA-MB-231 cells; MDA-MB-231 (TNBC), 72 hrs, WST-1 (Table 4)
  IC50: 40 nM
MDA-MB-231 cells; MDA-MB-231 (TNBC), 72 hrs, WST-1 (Table 5)
  Maximal efficacy: 77.6%
A2058 cells; A2058 (Melanoma), selectivity towards HME-1 cells (Table 6)
  SI = normal IC50 / cancer IC50: 0.3
A2058 cells; A2058 (Melanoma), 72 hrs, WST-1 (Table 4)
  IC50: 30 nM
A2058 cells; A2058 (Melanoma), 72 hrs, WST-1 (Table 5)
  Maximal efficacy: 95.2%
[2]; WST-1 (Table 4), read-out: Absolute IC50
  IC50: 170 nM
[2]; WST-1 (Table 5)
  Maximal efficacy: 98.1%
